Assay results taken from US20240336577A1, “PYRAZINE COMPOUND, AND METHOD OF PREPARATION AND USE THEREOF” (SHENZHEN OLIVE BIOPHARMACEUTICALS CO., LTD, priority 2020, published 2024).

Key:
db/db mice [1] = assay: Biochemical and metabolic indicators in db/db mice, 90 d administration; type: in vivo; details: once/d 90 d, Losartan 15 mg/kg/d, TMP 5.0 mg/kg, OLB-1 2.31 mg/kg, OLB-2 2.3 mg/kg, mean±SEM, n=6
db/db mice [2] = assay: Glucose and lipid metabolism in db/db mice, 56 d administration; type: in vivo; details: once/d 56 d, TMP 5.0 mg/kg, mean±SEM, n=6; for Creatinine / Total cholesterol / Triglyceride / Urea: Losartan 10 mg/kg; for Creatinine / Total cholesterol / Triglyceride / Urea / Glucose determination / High-density lipoprotein cholesterol / Low-density lipoprotein cholesterol: OLB-1/OLB-2 13.32 mg/kg; for Glycated hemoglobin / Glucose determination / High-density lipoprotein cholesterol / Low-density lipoprotein cholesterol: metformin 225 mg/kg/d; for Glycated hemoglobin: OLB-1/OLB-2 13.32 mg/kg (0.037 mmol/kg)
Experimental: Mice of a normal control group and model mice were given normal saline 10 ml/kg/d, metformin hydrochloride enteric-coated tablets 225 mg/kg/d, Losartan 10 mg/kg, TMP (5.0 mg/kg, 0.037 mmol/kg), and OLB-1 and OLB-2 (13.32 mg/kg, 0.037 mmol/kg), at a volume of 10 mL/kg, once/d, for continuous administration of 56 d, blood lipids and blood glucose related indexes were measured after blood collection. Data were presented as mean±SEM; n=6 per group. One-way ANOVA and multiple range test were adopted to show differences between the two groups. a, p<0.05 vs. db/db group; c, p<0.001 vs. db/db group.

[3] = test system: SH—SY5Y neuroblastoma cells; assay: LPS-induced inflammatory factors and oxidative stress-related proteins, ELISA kit; type: cell-based; details: 1 μg/mL LPS 24 h, mean±SEM, n=8; for TNF-alpha: differentiated SH-SY5Y, supernatant
Experimental: The SH—SY5Y cells were recovered and cultured, and the cells in the logarithmic growth phase were taken. After 24 h of incubation, SH—SY5Y neuroblastoma cells were treated with 1 μM all-trans retinoic acid to induce differentiation, and then inoculated into a 6-well culture dish for 24 h of incubation. The medium was treated with chemicals feed at 0.2 μM (L) or 1 μM (H) and 1 μg/mL LPS for 24 h, a supernatant medium was aspirated, and changes of inflammatory factors and oxidative stress-related proteins were measured by an ELISA kit. Data were presented as mean±SEM; n=8 per group. One-way ANOVA and multiple range test were adopted to show differences between the two groups. a, p<0.05 vs. LPS group; b, p<0.01 vs. LPS group; c, p<0.001 vs. LPS group.

[4] = test system: 6-OHDA Parkinson's disease rats; assay: APO-induced rotations in 6-OHDA Parkinson's disease rats; type: in vivo; details: APO-induced 6-OHDA rats, 2 weeks of treatment; different dosages of OLB-1, OLB-2; levodopa 25 mg/kg; FIG. 8
Source text: There is no rotation in a sham-operated group, and there is no significant difference between the groups injected with 6-OHDA, and there are about 180 rotations. […] Data were presented as mean±SEM; n=9-10 per group. One-way ANOVA and multiple range test were adopted to show differences between the two groups. *p<0.05, **p<0.01 vs. before 6-OHDA group.

[5] = test system: ALS (SOD-G93A) transgenic mice; assay: Pole climbing test in ALS transgenic mice; type: in vivo; details: different dosages of OLB-1, OLB-2, riluzole 5 mg/kg, FIG. 6
Source text: The pole climbing test is generally used to evaluate a motor coordination ability and motor delay of the limbs in mice. A homemade wooden pole about 50 cm long and about 1 cm in diameter was wrapped with medical gauze to increase friction of the wooden pole. The wooden pole was put vertically on a horizontal table, the mouse tail was grabbed such that the mouse head was facing down, with limbs grabbing a top of the pole; after releasing the mouse tail, timing was started, and it was ensured that the mouse crawled downward without external force, and the time was recorded for the mouse to climb from the top of the pole to a bottom platform (a standard was that mouse hind limbs were landed on the ground). […] An average of the three pole climbing times of mice was calculated as a final pole climbing time. […] Data were presented as mean±SEM; n=10 per group. One-way ANOVA and multiple range test were adopted to show differences between the two groups. ***p<0.001 vs. WT (normal control) group; #p<0.05, ##p<0.01 vs. ALS (SOD-G93A) group.

[6] = test system: ALS (SOD-G93A) transgenic mice; assay: Limb grip force test in ALS transgenic mice; type: in vivo; details: different dosages of OLB-1, OLB-2, riluzole 5 mg/kg, FIG. 7
Experimental: The limb grip force test is used directly to assess muscle strength in mice. […] After the start of administration, the grip force of the mice was tested every two weeks, and the measurement was repeated three times for each mouse, and the maximum among the three results was taken as a maximum grip force of the mice. […] Data were presented as mean±SEM; n=10 per group. One-way ANOVA and multiple range test show differences between the two groups. **p<0.01, ***p<0.001 vs. WT (normal control) group; #p<0.05, ##p<0.01 vs. ALS (SOD-G93A) group.

In the case of `CCCCc1nc(Cl)c(CO)n1Cc1ccc(-c2ccccc2-c2nn[nH]n2)cc1` [Losartan, reference compound], the Creatinine (db/db mice [1]) is reported as 42.12 ± 1.72(c) μmol/L, the Urea (db/db mice [1]) is reported as 7.23 ± 0.51(c) mmol/L and the Urine albumin/creatinine (db/db mice [1]) is reported as 522.59 ± 103.42(c) mg/g. For the same compound, the Creatinine (db/db mice [2]) was 42.12 ± 1.72(c) μmol/L, the Total cholesterol (db/db mice [2]) was 6.76 ± 0.46(c) mM and the Triglyceride (db/db mice [2]) was 9.68 ± 0.37(c) mg/dL. For the same compound, the Urea (db/db mice [2]) was 7.23 ± 0.51(c) mmol/L.

In the case of `Cc1nc(C)c(C)nc1C` [TMP, tetramethylpyrazine, reference compound], the Creatinine (db/db mice [1]) is reported as 52.5 ± 3.76 µmol/L, the Urea (db/db mice [1]) is reported as 11.55 ± 0.59 ^ mmol/L and the Urine albumin/creatinine (db/db mice [1]) is reported as 687.35 ± 79.04 ^ mg/g. It also gave a GSH-Px ([3]; compound 0.2 μM (L)) of 5.96 ± 0.74 µmol/mg, an IL1 ([3]; compound 0.2 μM (L)) of 13.26 ± 1.31 pg/mL and an IL6 ([3]; compound 0.2 μM (L)) of 14.12 ± 1.46 pg/mL. For the same compound, the MDA ([3]; compound 0.2 μM (L)) was 23.34 ± 1.71 nmol/mg, the SOD ([3]; compound 0.2 μM (L)) was 9.57 ± 0.61 nU/ml and the GSH-Px ([3]; compound 1 μM (H)) was 6.90 ± 0.87 µmol/mg. It also gave an IL1 ([3]; compound 1 μM (H)) of 13.53 ± 1.74 pg/mL, an IL6 ([3]; compound 1 μM (H)) of 12.69 ± 1.85 pg/mL and an MDA ([3]; compound 1 μM (H)) of 22.94 ± 1.33 nmol/mg. It also gave an SOD ([3]; compound 1 μM (H)) of 8.93 ± 0.47 nU/ml, a TNF-alpha ([3]; compound 0.2 μM (L)) of 12.22 ± 1.28 pg/mL and a TNF-alpha ([3]; compound 1 μM (H)) of 12.64 ± 1.70 pg/mL. For the same compound, the Creatinine (db/db mice [2]) was 52.5 ± 3.76 µmol/L, the Total cholesterol (db/db mice [2]) was 10.96 ± 1.38 ^ mM and the Triglyceride (db/db mice [2]) was 12.83 ± 1.37 ^ mg/dL. The Urea (db/db mice [2]) was 11.55 ± 0.59 ^ mmol/L, the Glycated hemoglobin (db/db mice [2]) was 917.31 ± 57.43 ^ nmol/L and the Glucose determination (db/db mice [2]) was 37.94 ± 3.11 ^ mM. For the same compound, the High-density lipoprotein cholesterol (db/db mice [2]) was 2.49 ± 0.16 ^ mM and the Low-density lipoprotein cholesterol (db/db mice [2]) was 0.68 ± 0.04 ^ mM.

For `N[C@@H](Cc1ccc(O)c(O)c1)C(=O)O` [levodopa, reference compound], the number of rotations [4] was “effectively reduce the number of rotations”.

For `CN(C)C(=N)N=C(N)N` [metformin, reference compound], the Glycated hemoglobin (db/db mice [2]) was 628.52 ± 50.59(c) nmol/L, the Glucose determination (db/db mice [2]) was 24.01 ± 2.38(c) mM and the High-density lipoprotein cholesterol (db/db mice [2]) was 2.19 ± 0.12(a) mM. For the same compound, the Low-density lipoprotein cholesterol (db/db mice [2]) was 0.59 ± 0.02(c) mM.

`Nc1nc2ccc(OC(F)(F)F)cc2s1` [riluzole, reference compound] was tested, and the “pole climbing time / symptoms of bradykinesia” value [5] was “significantly improve the symptoms of bradykinesia” and the limb grip force [6] was “effectively increase the limb force”.
